These results are taken from patent US12589087B2, “Enantiomer selective action on neurotransmission” (The Board of Trustees of the Leland Stanford Junior …, priority 2021, dated 2026).

The structures appear in SMILES notation. Where two headings read alike, the source gives them in different places.

Data set [1] has as its system mouse cerebral synaptosomes. Description: Synaptosomal neurotransmitter uptake assay. In kind it is cell-based. How it is done:
To each tube, 5 μL of a test compound solution (final concentration 10 μM) in Buffer KRP or Buffer KRP alone were added. Samples were incubated at 4° C. or 37° C. for 1, 10, or 30 min and then immediately centrifuged and washed twice by resuspension-centrifugation with Buffer S (0.5 mL). Resulting pellets were resuspended in 170 μL of 0.1% aqueous formic acid and mixed with 330 μL of ACN.
96-well plate experiments: 250 μL aliquots of the synaptosome suspension were transferred to two 0.8-mL 96 well plates, one on ice (0° C. samples only) and one in a thermoblock (37° C. samples only), and equilibrated for 10 min. 5 μL of a test compound (0.5 mM; final concentration: 10 μM) in Buffer KRP or Buffer KRP blank were added 10, 20 or 30 min before the incubation termination. “0 min” samples were prepared by placing the test compound solution in a separate pre-chilled V-shape bottom 2-mL 96 well plate; at the end of incubation 200 μL aliquots of all samples were transferred to the 2-mL 96 well plate and centrifuged (2,500 g for 15 min at 4° C.) immediately. The resulting pellets were rinsed with Buffer KRP, followed by centrifugation, twice, then resuspended in 200 μL of 60% ACN containing 2.5 μM Glu-d5 as internal standard and stored at −80° C. until analysis.
(§1) Synaptosome uptake and high potassium-induced release assays were performed as described in Example 1. Uptake assays used 250 μL aliquots of the synaptosome suspension transferred to a pre-chilled 0.8 mL 96 well plate. 5 μL of a test compound solution (0.5 mM; final concentration: 10 μM to compare directly to our previous work was added to each well and incubated at 0° C. or 37° C. After 10, 20 or 30 min, samples were chilled on ice and immediately sedimented (2,500 g for 15 min at 4° C.) and washed with Buffer S (0.5 mL, ×2). Resulting pellets were resuspended in 200 μL of 60% ACN containing 5 μM GABA-d6 and stored at −80° C. until analysis. Potassium-induced release assay used 500 μL aliquots of the synaptosome suspension transferred to pre-chilled microcentrifuge tubes. 2.5 μL of a test compound solution (20 mM; final concentration: 100 μM) in Buffer KRP was added to each tube and incubated for 15 min at 37° C., briefly chilled on ice, and then immediately sedimented (8,000 g for 4 min at 4° C.) and washed with Buffer KRP, followed by centrifugation, twice. The resulting pellets were resuspended in 500 μL of Buffer KRP or Buffer K-KRP and incubated for 5, 10 or 15 min at 37° C., sedimented (8,000 g for 4 min at 4° C.), and washed with Buffer KRP. Resulting pellets were resuspended in 400 μL of 60% ACN containing 2.5 μM GABA-d6 as internal standard and stored at −80° C. until analysis.

For data set [2], the system named is mouse cerebral synaptosomes. Nature of the data set: Potassium-induced neurotransmitter release assay. The conditions noted are these: for synaptosome total GABA concentration following preincubation: 100 μM preincubation 15 min 37° C., vehicle 9.5±0.2; for reduction of synaptosome 4APA concentration by K+-induced membrane depolarization: 40 mM K+ vs 5 mM K+, 15 min; for endogenous GABA displaced in synaptosomes: once incorporated into synaptosomes. It counts as cell-based. Here is the method: To each tube, 2.5 μL of a test compound solution (final concentration 100 μM) in Buffer KRP or Buffer KRP alone were added. Samples were incubated for 15 min at 37° C., briefly chilled on ice, and then immediately centrifuged and washed twice with Buffer KRP. The resulting pellets were then resuspended in either Buffer KRP (500 μL) or Buffer K-KRP (500 μL). Samples were immediately centrifuged or incubated for 5, 10 or 15 min at 37° C., then centrifuged and washed with Buffer KRP. Resulting pellets were resuspended in 400 μL of 60% ACN containing 2.5 μM Glu-d5 and 2.5 μM Gln-d5 as internal standards.
as §1

Data set [3] relates to mouse hippocampal slice cultures. Nature of the data set: Kainic acid neurodegeneration in hippocampal slice cultures (propidium iodide). In kind it is cell-based. The conditions noted are these: 5 or 50 μM compound. How it is done: We employed a standard technique of ex vivo experimentation to determine the efficacy of 2MeGlu, 2MeGln, and 4APA to prevent neurodegeneration. Mouse hippocampal slice cultures were prepared and then exposed to one of the three test compounds at either 5 or 50 μM for one hour. Then media was changed to contain either 2 or 5 μM kanic acid (KA) for 24 hr. […] After 24, the amount of neurodegeneration was assayed with propidium iodide staining. Increasing the dose of KA led to greater neurodegeneration at 5 μM than at 2 μM.

For data set [4], the system named is C57Bl/6 mice. It counts as in vivo. The conditions noted are these: for mortality after single dose: mouse, in vivo; for distance moved in the novel cage: single 100, 300, or 900 mg/kg IP, dose- and time-dependent. Here is the method:
Dosing: (R)-2MeGlu (30, 100, 300, or 900 mg/kg), (S)-2MeGlu (30, 100, 300, or 900 mg/kg), rac-2MeGln (30, 100, 300, or 900 mg/kg) and vehicle (PBS) were administered at 10 ml/kg IP dosing volume. Three mice were dosed once with the assigned drug (100, 300, or 900 mg/kg) or vehicle and immediately placed in a new cage for novel cage observation. Subsequently, six mice were dosed once with the assigned drug (30 or 100 mg/kg) or vehicle and tested by SHIRPA, activity chamber, and then hot plate tests.
The mouse was dosed and immediately placed in the center of a clean, Innovive disposable rat cage with bedding (dimensions: 17″L×13.4″W×7.8″H) and allowed to move freely while being tracked automatically. Mice were monitored with Ethovision XT tracking software for the distance moved and average velocity during the 60-minute trial. They were returned to their home cage after the test. A new cage was used for each mouse.
Exploratory behavioral tests were performed exactly as previously described by us using 2-month-old C57Bl/6 male mice, Example 1. First, we assessed safety and tolerability of acute exposure to 4APA enantiomers in 22 mice by novel cage observation at 100, 300, or 900 mg/kg IP compared to vehicle (PBS) IP (n=3 or 4 mice per group without sample calculation, based on our previous study. Next, we evaluated 24 drug naïve mice with a 23-measure battery of neurologic dysfunction in mice (SHIRPA) (Rogers et al., 2001), automated activity chamber assessment, and hot plate latency acutely following 30 or 100 mg/kg IP compared to vehicle IP (n=4 or 5 mice per group). No exclusion criteria were predetermined and no randomization was performed to allocate subjects in the study.

Data set [5] relates to Line 61 mice. Nature of the data set: Transgenic α-synuclein mouse model, tapered beam test. It counts as in vivo. An excerpt:
Line 61 mice overexpress human α-synuclein under control of the mouse Thy-1 promoter. The transgene is X-linked so females have variable transgene expression; for this reason, we focused on male mice. […] Categorical data from the tapered beam task were unblinded and analyzed by X square test (P<0.005).

For data set [6], the target named is T1, human glutaminase GLS1 (Homo sapiens, UniProt O94925).
T1 construct: purchased Sigma SRP0516
T1 sequence (O94925 55-669): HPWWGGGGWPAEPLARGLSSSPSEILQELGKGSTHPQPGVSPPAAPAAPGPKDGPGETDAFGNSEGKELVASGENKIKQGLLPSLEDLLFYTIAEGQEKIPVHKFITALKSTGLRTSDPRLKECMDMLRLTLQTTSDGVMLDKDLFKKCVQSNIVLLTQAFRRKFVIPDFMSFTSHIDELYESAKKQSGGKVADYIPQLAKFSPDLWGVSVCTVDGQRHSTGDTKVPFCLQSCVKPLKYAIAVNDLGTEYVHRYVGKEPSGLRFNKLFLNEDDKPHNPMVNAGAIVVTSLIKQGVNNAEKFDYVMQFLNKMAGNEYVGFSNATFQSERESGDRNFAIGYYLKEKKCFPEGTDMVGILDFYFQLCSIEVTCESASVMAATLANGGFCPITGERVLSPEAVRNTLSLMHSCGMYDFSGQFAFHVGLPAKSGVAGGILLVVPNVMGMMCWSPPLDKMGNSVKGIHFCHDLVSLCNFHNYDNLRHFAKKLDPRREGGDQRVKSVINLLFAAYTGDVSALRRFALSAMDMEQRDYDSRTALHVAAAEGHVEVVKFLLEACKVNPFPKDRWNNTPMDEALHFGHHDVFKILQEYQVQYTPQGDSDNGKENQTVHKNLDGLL
Nature of the data set: Catalysis of 2MeGln hydrolysis by GLS1 glutaminase. It counts as biochemical. The conditions noted are these: human GLS1. Here is the method:
The procedure was adapted from an existing protocol. To a reaction mixture in a 1.5 mL microcentrifuge tube containing 10 mM rac-2MeGln or L-Gln-^13C2 in 100 mM phosphate pH 7.4 buffer made in 20% atom ^18O water, recombinant GLS1 (final concentration: 5 ng/mL) was added. The tubes were incubated in a preheated thermomixer at 37° C. and periodically shaken at 600 rpm (30 s on, 30 s off). 5 μL aliquots were collected in triplicate every 5 min and immediately diluted with 195 μL of cold 60% ACN containing 10 μM Glu-d5 and Gln-d5 as internal standards in a 96 well plate. After collecting all samples, the plate was shaken at 1000 rpm for 5 min at room temperature, and then stored at −80° C. Before analysis the plate was thawed and 10 μL aliquots of the extracted reaction mixtures were diluted with 190 μL of 90% acetonitrile.
The quantification of the newly formed 2MeGlu in the presence of the preexisting trace amounts was performed in the following way. Peak area ratio of Glu-^13C2 to Glu-^13C2^18O was calculated in all samples containing Glu-^13C2. The mean ratio value was then applied to calculate the hypothetical peak area of the newly formed 2MeGlu based on the directly measured 2MeGlu-^18O peak area. The ratio of the newly formed 2MeGlu peak area and the total 2MeGlu peak area was applied to calculate the concentration of the newly formed 2MeGlu from the total 2MeGlu concentration determined directly using the calibration curve.

Turning to `CC(N)CCC(=O)O` (racemic) [rac-4APA, (rac)-4-Aminopentanoic acid], the transport into synaptosomes result in data set [1] (10 μM substrate, 37° C.) is listed as “transported into synaptosomes”. Further, in data set [1] (10 μM, 30 min at 37° C.), the “synaptosome concentration, % of (R)-4APA” value is 78.5±3.8%. Also, in data set [2], the “synaptosome total GABA concentration following preincubation” value came out at 4.4±0.4 nmol/mg protein, the “reduction of synaptosome 4APA concentration by K+-induced membrane depolarization” value (“reduction” for short) worked out at 62.2±8.6% and the “endogenous GABA displaced in synaptosomes” value (from here on “endogenous GABA displaced”) is “about 55%”. In data set [2] (preincubation with compound), the “synaptosome Glu concentration” value is reported as “not significantly changed”. The “potassium-induced release from synaptosomes” value in data set [2] (preloaded with 100 μM for 15 min at 37° C., high-potassium depolarization) is on record as “high potassium concentration-dependent release”. In addition, the neuroprotection entry in data set [3] was “not neuroprotective”.
As to `C[C@@H](N)CCC(=O)O` [(R)-4APA, (R)-4-aminopentanoic acid], the “synaptosome concentration of 4APA” value in data set [1] (10 μM, 30 min at 37° C.) amounted to 9.3±0.6 nmol/mg protein. Moreover, the “synaptosome uptake, faster than (S)-4APA” value in data set [1] (mouse synaptosomes) is 4- to 5 fold. Also, in data set [2], the “synaptosome total GABA concentration following preincubation” value is given as 3.8±0.5 nmol/mg protein, the “reduction” value was 55.3±6.8% and the “endogenous GABA displaced” value is reported as “about 55%”. In addition, in data set [4] (300 mg/kg IP), the “time post injection until not significantly different from vehicle, novel cage” value turned out to be 13 min. For the same compound, the “time post injection until not significantly different from vehicle, novel cage” value in data set [4] (900 mg/kg IP) worked out at 42 min. Besides, in data set [4], the “mortality after single dose” value is “no mouse died” and the “distance moved in the novel cage” value is “significantly decreased”. The “body weight or deaths” value in data set [5] (5 or 50 mg/kg/d IP, seven days) is listed as “no change in body weight or deaths”. Besides, in data set [5] (7 days IP, high dose (50 mg/kg/d) S-2MeGlu, either dose (5 or 50 mg/kg/d) R-4APA), the “motor function, tapered beam” value is “improved motor function similar to WT mice”. Moreover, the “α-synuclein accumulation in brain by immunohistochemistry vs vehicle” value in data set [5] (Line 61 mice) is “no significant change”.
With `C[C@](N)(CCC(N)=O)C(=O)O` [(S)-2MeGln, (S)-2-methylglutamine], the “substrate of GLS1 (hydrolysis to 2MeGlu)” value in data set [6] is listed as “substrates”.
For `C[C@H](N)CCC(=O)O` [(S)-4APA, (S)-4-aminopentanoic acid], in data set [1] (10 μM, 30 min at 37° C.), the “synaptosome concentration, % of (R)-4APA” value is on record as 22.8±0.8%. Besides, in data set [2], the “synaptosome total GABA concentration following preincubation” value came out at 6.0±0.6 nmol/mg protein, the “reduction” value is given as “did not significantly reduce” and the “endogenous GABA displaced” value is listed as “approximately 30%”. In data set [4], the “mortality after single dose” value is “no mouse died” and the “distance moved in the novel cage” value is listed as “significantly decreased”.
